ChEMBL document CHEMBL6087456 (J Med Chem, 2025)
Values after ≈ are worked out from the molar mass of the structure shown.

What was measured:
[1] = Half life in human; format: ADME
Plasmodium falciparum = experiment: Antiparasitic activity against asexual blood stage Plasmodium falciparum 3D7 incubated for 72 hrs by SYBR Green assay; format: functional, organism-based; conditions: 3D7, 72 h
[2] = Kinetic solubility of compound at pH 6.5 measured after 30 mins by nephelometry; format: physicochemical; conditions: buffer; for Kinetic_solubility: pH 6.5, 0.5 h; for solubility kinetic at 0.5 h: pH 6.5, read-out: Kinetic_solubility
[3] = Metabolic stability in human liver microsomes assessed as intrinsic clearance at 0.5 uM incubated for 60 mins in presence of NADPH by tandem quadrupole-Time of Flight MS; format: ADME, Microsome; conditions: 1 h
Albumin = Albumin (Homo sapiens, UniProt P02768); experiment: Protein binding to albumin (unknown origin) in ALBUMAX medium; format: ADME; conditions: read-out: PB (converted)
[4] = Protein binding in human hepatocytes; format: ADME, cell-based, Hepatocyte; conditions: read-out: PB (converted)
[5] = Ratio of drug concentration in Sprague-Dawley rat brain to plasma at 1 uM measured for 5 to 60 mins by LCMS analysis; format: ADME, cell-free; conditions: time 5-60 min
[6] = Half life in overnight-fasted male Sprague-Dawley rat at 3 mg/kg, po or 1 mg/kg, iv measured upto 72 hrs by LCMS analysis; format: ADME, organism-based; conditions: in vivo
[7] = Oral bioavailability in overnight-fasted male Sprague-Dawley rat at 3 mg/kg measured upto 72 hrs by LCMS analysis; format: ADME, organism-based; conditions: in vivo
[8] = Oral absorption in overnight-fasted male Sprague-Dawley rat at 3 mg/kg measured upto 72 hrs by LCMS analysis; format: ADME, organism-based; conditions: in vivo
[9] = target: Dihydroorotate dehydrogenase (quinone), mitochondrial (Homo sapiens, UniProt Q02127); experiment: Inhibition of C-terminal His6-tagged recombinant human DHODH (29 to 395 residues) N-terminally truncated soluble domain extracted from Escherichia coli phage resistant BL21-DE3 using CoQD/DHA/DCIP as substrates
[10] = Plasma protein binding in human measured for 6 hrs by rapid equilibrium dialysis; format: ADME, cell-free
[11] = Plasma protein binding in rat measured for 6 hrs by rapid equilibrium dialysis; format: ADME, cell-free
[12] = target: T1, Dihydroorotate dehydrogenase (quinone), mitochondrial (Plasmodium falciparum (isolate 3D7), UniProt Q08210); experiment: Inhibition of N-terminal His6-tagged recombinant Plasmodium falciparum DHODH (158 to 569 residues) N-terminally truncated soluble domain extracted from Escherichia coli phage resistant BL21-DE3 using CoQD/DHA/DCIP as substrates
T1 sequence (Q08210 whole entry): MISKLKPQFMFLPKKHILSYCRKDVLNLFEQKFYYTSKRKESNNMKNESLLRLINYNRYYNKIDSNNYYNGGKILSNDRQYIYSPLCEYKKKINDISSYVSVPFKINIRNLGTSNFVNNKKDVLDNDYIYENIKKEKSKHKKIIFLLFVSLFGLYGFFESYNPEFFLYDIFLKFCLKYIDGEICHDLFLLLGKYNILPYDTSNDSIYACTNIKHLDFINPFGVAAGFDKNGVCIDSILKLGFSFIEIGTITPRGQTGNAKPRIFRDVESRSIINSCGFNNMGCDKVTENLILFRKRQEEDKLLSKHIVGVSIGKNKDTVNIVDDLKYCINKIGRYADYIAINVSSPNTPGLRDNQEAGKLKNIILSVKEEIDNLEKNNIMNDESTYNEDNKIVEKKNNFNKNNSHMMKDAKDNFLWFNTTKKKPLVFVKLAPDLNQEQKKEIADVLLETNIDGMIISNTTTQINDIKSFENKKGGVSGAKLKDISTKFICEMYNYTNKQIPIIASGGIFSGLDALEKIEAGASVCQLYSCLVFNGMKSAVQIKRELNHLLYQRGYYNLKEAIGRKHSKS

[13] = Partition coefficient, log D of compound at pH 7.4 measured after 24 hrs by LCMS analysis; format: physicochemical; conditions: octanol/water, pH 7.4, 24 h
[14] = Cytotoxicity against human HepG2 cells by Cell Titer Glo assay; format: toxicity, cell-based
[15] = Cytotoxicity against human Jurkat cells by Cell Titer Glo assay; format: toxicity, cell-based
[16] = Drug excretion in Sprague-Dawley rat urine at 1 mg/kg, iv; format: ADME, organism-based; conditions: read-out: Drug excretion
Cytochrome P450 1A2 = target: T2, Cytochrome P450 1A2 (Homo sapiens, UniProt P05177); experiment: Inhibition of CYP1A2 in human liver microsomes; format: ADME, Microsome
T2 sequence (P05177 whole entry): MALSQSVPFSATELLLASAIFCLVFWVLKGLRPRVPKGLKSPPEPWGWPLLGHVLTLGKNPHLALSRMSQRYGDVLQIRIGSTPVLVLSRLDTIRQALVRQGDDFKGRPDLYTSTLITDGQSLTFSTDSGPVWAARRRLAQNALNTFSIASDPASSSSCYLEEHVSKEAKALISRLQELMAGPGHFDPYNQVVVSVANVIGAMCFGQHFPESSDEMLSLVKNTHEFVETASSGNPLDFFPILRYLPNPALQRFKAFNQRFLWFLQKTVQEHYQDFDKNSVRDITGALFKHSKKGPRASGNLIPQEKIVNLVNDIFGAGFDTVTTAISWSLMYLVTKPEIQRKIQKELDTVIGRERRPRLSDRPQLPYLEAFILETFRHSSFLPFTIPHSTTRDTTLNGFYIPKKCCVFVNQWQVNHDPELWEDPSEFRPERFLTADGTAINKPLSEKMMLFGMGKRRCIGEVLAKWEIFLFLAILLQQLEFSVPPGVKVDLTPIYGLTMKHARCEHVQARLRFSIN

Cytochrome P450 2B6 = target: T3, Cytochrome P450 2B6 (Homo sapiens, UniProt P20813); experiment: Inhibition of CYP2B6 in human liver microsomes; format: ADME, Microsome
T3 sequence (P20813 whole entry): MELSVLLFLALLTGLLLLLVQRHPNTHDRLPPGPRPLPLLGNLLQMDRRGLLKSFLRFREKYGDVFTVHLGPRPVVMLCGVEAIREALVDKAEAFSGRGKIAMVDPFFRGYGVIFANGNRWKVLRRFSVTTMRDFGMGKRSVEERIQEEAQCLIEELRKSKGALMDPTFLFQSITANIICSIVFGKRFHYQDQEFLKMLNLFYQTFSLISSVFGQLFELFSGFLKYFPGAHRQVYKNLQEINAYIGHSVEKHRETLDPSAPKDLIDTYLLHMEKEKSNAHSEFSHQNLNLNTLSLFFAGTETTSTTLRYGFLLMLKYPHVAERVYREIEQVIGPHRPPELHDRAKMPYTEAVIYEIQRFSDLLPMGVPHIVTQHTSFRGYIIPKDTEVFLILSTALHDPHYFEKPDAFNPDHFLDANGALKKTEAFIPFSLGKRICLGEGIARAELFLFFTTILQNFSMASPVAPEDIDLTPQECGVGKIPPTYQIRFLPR

Cytochrome P450 2D6 = Cytochrome P450 2D6 (Homo sapiens, UniProt P10635); experiment: Inhibition of CYP2D6 in human liver microsomes; format: ADME, Microsome
Cytochrome P450 3A4 = Cytochrome P450 3A4 (Homo sapiens, UniProt P08684); experiment: Inhibition of CYP3A4 in human liver microsomes; format: ADME, Microsome
[17] = Permeability across apical to basal side in human Caco-2 cells; format: ADME, cell-based

Chain of Albumin (P02768 whole entry): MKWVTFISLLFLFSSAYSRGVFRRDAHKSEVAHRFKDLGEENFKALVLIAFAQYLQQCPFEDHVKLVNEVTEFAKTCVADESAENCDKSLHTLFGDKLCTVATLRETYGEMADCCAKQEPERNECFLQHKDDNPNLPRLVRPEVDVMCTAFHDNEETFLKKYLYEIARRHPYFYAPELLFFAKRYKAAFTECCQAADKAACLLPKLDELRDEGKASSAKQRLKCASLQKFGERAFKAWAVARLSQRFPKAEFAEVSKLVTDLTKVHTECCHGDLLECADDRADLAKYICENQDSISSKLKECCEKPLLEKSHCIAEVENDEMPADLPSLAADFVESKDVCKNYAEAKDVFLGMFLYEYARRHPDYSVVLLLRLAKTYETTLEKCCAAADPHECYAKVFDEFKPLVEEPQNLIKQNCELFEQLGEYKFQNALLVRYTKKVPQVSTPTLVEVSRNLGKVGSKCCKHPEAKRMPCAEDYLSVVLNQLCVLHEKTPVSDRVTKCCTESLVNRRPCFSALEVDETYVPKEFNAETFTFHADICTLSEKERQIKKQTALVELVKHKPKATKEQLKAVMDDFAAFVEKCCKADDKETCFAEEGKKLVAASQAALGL
Chain of Dihydroorotate dehydrogenase (quinone), mitochondrial (Homo sapiens, UniProt Q02127) (Q02127 whole entry, the tested form may be a part): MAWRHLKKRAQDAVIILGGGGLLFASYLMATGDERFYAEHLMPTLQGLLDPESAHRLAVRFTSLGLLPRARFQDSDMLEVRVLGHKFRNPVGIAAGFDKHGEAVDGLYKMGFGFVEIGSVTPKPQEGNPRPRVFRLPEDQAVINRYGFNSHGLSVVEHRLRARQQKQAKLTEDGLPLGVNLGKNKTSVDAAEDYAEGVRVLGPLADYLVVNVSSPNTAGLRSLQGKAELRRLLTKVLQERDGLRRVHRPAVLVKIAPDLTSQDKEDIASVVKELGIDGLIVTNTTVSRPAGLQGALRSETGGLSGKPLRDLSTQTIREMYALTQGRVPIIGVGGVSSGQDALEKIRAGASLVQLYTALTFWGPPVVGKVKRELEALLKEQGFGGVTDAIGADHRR
Chain of Cytochrome P450 2D6 (P10635 whole entry): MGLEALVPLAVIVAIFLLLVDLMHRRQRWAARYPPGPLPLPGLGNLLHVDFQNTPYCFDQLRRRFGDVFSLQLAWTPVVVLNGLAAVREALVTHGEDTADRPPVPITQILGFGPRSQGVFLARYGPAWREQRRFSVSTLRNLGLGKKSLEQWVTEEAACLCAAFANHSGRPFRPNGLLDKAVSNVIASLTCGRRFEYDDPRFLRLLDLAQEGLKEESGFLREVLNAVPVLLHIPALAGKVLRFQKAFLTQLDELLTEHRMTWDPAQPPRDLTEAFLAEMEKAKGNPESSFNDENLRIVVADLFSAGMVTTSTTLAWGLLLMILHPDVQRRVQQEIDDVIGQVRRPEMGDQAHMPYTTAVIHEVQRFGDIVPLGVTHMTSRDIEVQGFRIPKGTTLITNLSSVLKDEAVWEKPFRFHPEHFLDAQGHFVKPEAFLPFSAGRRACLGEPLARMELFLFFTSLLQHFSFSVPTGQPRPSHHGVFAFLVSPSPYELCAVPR
Chain of Cytochrome P450 3A4 (P08684 whole entry): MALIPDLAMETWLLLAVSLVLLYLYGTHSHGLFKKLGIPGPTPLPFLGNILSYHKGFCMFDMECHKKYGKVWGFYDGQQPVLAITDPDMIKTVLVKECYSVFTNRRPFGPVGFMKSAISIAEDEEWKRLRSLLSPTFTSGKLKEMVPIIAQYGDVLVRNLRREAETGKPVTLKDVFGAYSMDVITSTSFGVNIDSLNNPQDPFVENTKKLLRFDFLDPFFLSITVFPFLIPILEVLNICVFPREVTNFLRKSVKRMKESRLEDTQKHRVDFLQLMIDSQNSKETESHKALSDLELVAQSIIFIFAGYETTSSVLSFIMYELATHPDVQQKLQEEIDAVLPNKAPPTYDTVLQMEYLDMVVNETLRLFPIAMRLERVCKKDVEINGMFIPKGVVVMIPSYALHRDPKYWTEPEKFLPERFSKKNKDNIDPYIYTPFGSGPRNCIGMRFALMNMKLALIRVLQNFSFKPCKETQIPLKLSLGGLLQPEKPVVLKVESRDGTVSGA

| Structure (SMILES) | EC50 (Plasmodium falciparum) [µM] | intrinsic clearance (CLint) [3] [µL/min/mg] | fraction unbound (Albumin) | fraction unbound [4] | BPR [5] | t1/2 [6] [h] | F [7] [%] | Fa at 72 h [8] [%] | IC50 [9] [µM] | solubility kinetic at 0.5 h [2] [µM] | PPB [10] [%] | PPB [11] [%] | other results |
| --- | --- | --- | --- | --- | --- | --- | --- | --- | --- | --- | --- | --- | --- |
| Cc1c(C2(c3ccc(C(F)(F)F)nc3)CC2)c[nH]c1C(=O)N[C@H](C)c1nc[nH]n1 | – | – | – | – | – | – | – | – | – | – | – | – | half-life [1]: > 100 h |
| CC[C@@](N)(c1cnc(C(F)(F)F)c(Cl)c1)c1c2ccn(C3CC3)c(=O)c2nn1C | 0.003 | < 3 | 0.63 | 0.574 | 0.73 | 15 | 4 | 82 | – | – | – | – | Kinetic_solubility [2]: > 100 µM |
| Cn1nc2c(=O)n(C3CC3)ccc2c1[C@](O)(c1cnc(C(F)(F)F)c(Cl)c1)C1CC1 | 0.003 | < 3 | 0.289 | 0.578 | – | 19 | – | 4.6 | > 30 | 12.5 (≈ 5.49 µg/mL) | 95.8 | 93 | – |
| CCn1cc(C)c2c([C@H](N)c3ccc(C(F)(F)F)nc3)n(C)nc2c1=O | 0.07 | < 3 | – | – | 1.1 | – | – | – | > 100 | – | – | – | IC50 [12]: 0.28 µM; Kinetic_solubility [2]: > 320 µM; logD [13]: 1.82 |
| CCn1ccc2c([C@](O)(c3cnc(C(F)(F)F)c(Cl)c3)C3CC3)n(C)nc2c1=O | 0.002 | 3.2 | – | – | 0.84 | – | – | – | > 100 | 40 (≈ 17.1 µg/mL) | 70.4 | 64 | – |
| CC[C@@](N)(c1cnc(C(F)(F)F)c(Cl)c1)c1c2ncn(C3CC3)c(=O)c2nn1C | 0.007 | < 3 | 0.703 | 0.589 | – | – | 79 | 64 | > 30 | 80 (≈ 34.1 µg/mL) | – | – | IC50 [12]: 0.038 µM; CC50 [14]: > 20 µM; CC50 [15]: > 20 µM; logD [13]: 3.44; dose excreted [16]: < 1%; IC50 (Cytochrome P450 1A2): > 20 µM; IC50 (Cytochrome P450 2B6): > 20 µM; IC50 (Cytochrome P450 2D6): > 20 µM; IC50 (Cytochrome P450 3A4): > 20 µM |
| CCn1cc(Cl)c2c(Cc3ccc(C(F)(F)F)nc3)n(C)nc2c1=O | 0.014 | 14 | 0.558 | – | 0.72 | – | – | 100 | 72 | 70 (≈ 26 µg/mL) | – | – | – |
| Cn1nc2c(=O)n(C3CC3)ncc2c1[C@](O)(c1cnc(C(F)(F)F)c(Cl)c1)C(F)(F)F | 0.003 | < 3 | 0.319 | 0.342 | – | 23 | > 100 | 94 | > 30 | 20 (≈ 9.36 µg/mL) | 99.1 | 97.3 | CC50 [14]: > 20 µM; CC50 [15]: > 20 µM; dose excreted [16]: < 1%; permeability [17]: Permeable; IC50 (Cytochrome P450 1A2): > 20 µM; IC50 (Cytochrome P450 2B6): > 20 µM; IC50 (Cytochrome P450 2D6): > 20 µM; IC50 (Cytochrome P450 3A4): > 20 µM |
